# Measurements reported in patent US20240108738A1, “BICYCLIC PEPTIDE LIGANDS SPECIFIC FOR NK CELLS” (Bicycle Tx Limited, priority 2021, published 2024).
# Where two headings read alike, the source gives them in different places. Numbered stars: 1 amine (or outer) side, 2 acyl side, 3 side chain; on linkers, the order of the positions; unused ones are H or OH. Bridge positions count the residues as written; N and C are the ends. Square brackets hold non-standard residues; d marks the D form. Peptide text beside a SMILES is read from it. * marks the point of attachment. TATA = O=C(CC[*:1])N1CN(C(=O)CC[*:2])CN(C(=O)CC[*:3])C1; Biotin = O=C1N[C@H]2[C@H](CS[C@H]2CCCCC(=O)*)N1; Cba = N[C@@H](CC1CCC1)C(=O)O; Sar = CNCC(=O)O
# Experiments:
# [1] = molecular target: T1, human NKp46-his tagged protein (Homo sapiens, UniProt O76036); test: NKp46 Fluorescence Polarization (FP) competition binding assay, tracer BCY15035
# T1 construct: His tag; purchased AcroBiosystems
# T1 sequence (O76036 22-304): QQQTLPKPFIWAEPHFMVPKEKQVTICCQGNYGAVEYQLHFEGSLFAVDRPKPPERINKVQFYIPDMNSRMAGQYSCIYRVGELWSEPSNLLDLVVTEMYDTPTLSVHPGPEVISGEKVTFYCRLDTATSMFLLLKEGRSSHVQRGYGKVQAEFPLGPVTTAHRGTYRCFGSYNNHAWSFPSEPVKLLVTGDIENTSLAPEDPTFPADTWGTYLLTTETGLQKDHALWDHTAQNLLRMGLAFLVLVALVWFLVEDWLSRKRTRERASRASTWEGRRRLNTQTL
# CD16a (V Variant) = CD16a (V Variant) (Homo sapiens, UniProt P08637, F176V); test: FcγRIII (CD16a) SPR (Method A and/or Method B), V variant; assay type: binding
# Sequence of CD16a (V Variant) (P08637 17-208 F176V): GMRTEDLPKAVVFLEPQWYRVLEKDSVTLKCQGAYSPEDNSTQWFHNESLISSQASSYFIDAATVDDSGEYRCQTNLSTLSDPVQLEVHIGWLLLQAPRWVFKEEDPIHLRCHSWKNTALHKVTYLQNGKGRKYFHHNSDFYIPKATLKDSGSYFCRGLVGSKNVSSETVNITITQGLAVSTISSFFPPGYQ
# CD16a (F Variant) = CD16a (F Variant) (Homo sapiens, UniProt P08637); test: FcγRIII (CD16a) SPR (Method A and/or Method B), F variant; assay type: binding
# Fc-tagged human NKp46 = molecular target: T2, Fc-tagged human NKp46 (Homo sapiens, UniProt O76036); test: NKp46 SPR assay (Method 1 and/or Method 2); assay type: binding; conditions: SPR Method 1 and/or Method 2, Table 3B
# T2 construct: purchased ACROBiosystems NC1-H5257
# T2 sequence (O76036 22-304): as the sequence (O76036 22-304) above
# In short: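 Method 1: biotinylated Avi-tag NKp46-Fc on streptavidin chip, peptides to 100-5000 nM top in PBS/0.05% Tween 20, 0.5% DMSO; 1:1 kinetic fit with mass transport. Method 2: NKp46-Fc captured by anti-Fc, PBS-P+ 2% DMSO; steady-state or kinetic 1:1 fit. Both 25° C, 50 μl/min, 60 s association.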
# [2] = SPR Method A and/or B, Table 6B, read-out: Kd (nM) (V Variant)
# [3] = SPR Method A and/or B, Table 6B, read-out: Kd (nM) (F Variant)
Ki [1],Kd (CD16a (V Variant); [2]),Kd (CD16a (F Variant); [3]),Compound,further results
1.62 µM,–,–,"CC(C)C[C@@H]1NC(=O)[C@H](Cc2ccc(O)cc2)NC(=O)[C@@H](NC(=O)[C@H](C)N)CSCCC(=O)N2CN3CN(C2)C(=O)CCSC[C@@H](C(=O)N[C@@H](C)C(N)=O)NC(=O)[C@H](Cc2ccc(O)cc2)NC(=O)[C@H](CCC(=O)O)NC(=O)[C@H](CC(=O)O)NC(=O)CNC(=O)[C@H](CSCCC3=O)NC(=O)[C@H](CC(C)(C)C)NC(=O)[C@H](Cc2c[nH]c3ccccc23)NC(=O)[C@H](CC(=O)O)NC(=O)[C@@H]2CCCN2C1=O [BCY15648, A-(SEQ ID NO: 24)-A]",–
–,4330 nM,28600 nM,"CC(C)C[C@@H]1NC(=O)[C@@H]2CCCN2C(=O)[C@H](Cc2c[nH]cn2)NC(=O)[C@@H]2CSCCC(=O)N3CN(CN(C3)C(=O)CCSC[C@H](NC(=O)[C@H](C)N)C(=O)N3CCC[C@H]3C(=O)N3CCC[C@H]3C(=O)N[C@@H](CCC(=O)O)C(=O)N[C@@H](C(C)C)C(=O)N[C@@H](Cc3ccccc3)C(=O)N2)C(=O)CCSC[C@@H](C(=O)N[C@@H](C)C(N)=O)NC(=O)[C@H](CC(=O)O)NC1=O [BCY11809, A-(SEQ ID NO: 170)-A] (H-ACPPEVFCHPLDCA-NH2; linker 2-8-13 via TATA; N-terminus and C-terminus assumed)",–
–,–,–,"CC(C)C[C@@H]1NC(=O)CNC(=O)[C@H](C(C)C)NC(=O)[C@@H](N)CSCc2nc3nc(n2)CSC[C@H](NC(=O)[C@@H]2CCCN2C(=O)CNC(=O)[C@H](CC(C)C)NC(=O)[C@H](CCC(=O)O)NC(=O)[C@H](CCC(=O)O)NC1=O)C(=O)N[C@@H](CO)C(=O)N[C@@H](CC(=O)O)C(=O)N[C@@H](CC(C)C)C(=O)N[C@H](C(N)=O)CSC3 [BCY16494, (SEQ ID NO: 62)]",Kd (CD16a (V Variant)): 2820 nM; Kd (CD16a (F Variant)): 2870 nM
–,832 nM,3610 nM,"CC(C)C[C@@H]1NC(=O)[C@@H]2CCCN2C(=O)[C@H](Cc2c[nH]cn2)NC(=O)[C@@H]2CSCCC(=O)N3CN(CN(C3)C(=O)CCSC[C@H](NC(=O)[C@H](C)N)C(=O)N3CCC[C@H]3C(=O)N3CCC[C@H]3C(=O)N[C@@H](CCC(=O)O)C(=O)N[C@@H](C(C)C)C(=O)N[C@@H](Cc3ccc(O)cc3)C(=O)N2)C(=O)CCSC[C@@H](C(=O)N[C@@H](C)C(N)=O)NC(=O)[C@H](CC(=O)O)NC1=O [BCY11810, A-(SEQ ID NO: 171)-A] (H-ACPPEVYCHPLDCA-NH2; linker 2-8-13 via TATA)",–
–,1230 nM,8240 nM,"CC(C)C[C@@H]1NC(=O)[C@@H]2CCCN2C(=O)[C@H](Cc2c[nH]cn2)NC(=O)[C@@H]2CSCCC(=O)N3CN(CN(C3)C(=O)CCSC[C@H](NC(=O)[C@H](C)N)C(=O)N3CCC[C@H]3C(=O)N3CCC[C@H]3C(=O)N[C@@H](CCC(=O)O)C(=O)N[C@@H](C(C)C)C(=O)N[C@@H](Cc3c[nH]c4ccccc34)C(=O)N2)C(=O)CCSC[C@@H](C(=O)N[C@@H](C)C(N)=O)NC(=O)[C@H](CC(=O)O)NC1=O [BCY11811, A-(SEQ ID NO: 172)-A] (H-ACPPEVWCHPLDCA-NH2; linker 2-8-13 via TATA)",–
0.016 µM,–,–,"CC(C)C[C@@H]1NC(=O)[C@H](Cc2ccc(O)cc2)NC(=O)[C@H](CC(=O)O)NC(=O)[C@@H]2CCCN2C(=O)[C@H](CC(C)C)NC(=O)[C@H](Cc2ccc(O)cc2)NC(=O)[C@@H](NC(=O)[C@H](C)N)CSCCC(=O)N2CN3CN(C2)C(=O)CCSC[C@H](NC1=O)C(=O)N[C@H](C)C(=O)N[C@@H](CC(=O)O)C(=O)N[C@@H](CCC(=O)O)C(=O)N[C@@H](Cc1ccc(O)cc1)C(=O)N[C@H](C(=O)N[C@@H](C)C(N)=O)CSCCC3=O [BCY15650, A-(SEQ ID NO: 26)-A] (H-ACYLPDYLC[dA]DEYCA-NH2; linker 2-9-14 via TATA; N-terminus assumed)",Kd (Fc-tagged human NKp46): 0.01 ± 0.003 µM
–,2400 nM,11800 nM,"CC(C)C[C@@H]1NC(=O)[C@@H]2CCCN2C(=O)[C@H](Cc2c[nH]cn2)NC(=O)[C@@H]2CSCCC(=O)N3CN(CN(C3)C(=O)CCSC[C@H](NC(=O)[C@H](C)N)C(=O)N3CCC[C@H]3C(=O)N3CCC[C@H]3C(=O)N[C@@H](CCC(N)=O)C(=O)N[C@@H](C(C)C)C(=O)N[C@@H](Cc3ccc(O)cc3)C(=O)N2)C(=O)CCSC[C@@H](C(=O)N[C@@H](C)C(N)=O)NC(=O)[C@H](CC(=O)O)NC1=O [BCY11812, A-(SEQ ID NO: 173)-A] (H-ACPPQVYCHPLDCA-NH2; linker 2-8-13 via TATA; C-terminus assumed)",–
0.017 µM,–,–,"CC(C)C[C@@H]1NC(=O)[C@H](Cc2ccc(O)cc2)NC(=O)[C@H](CC(=O)O)NC(=O)[C@@H]2CCCN2C(=O)[C@H](CC2CCC2)NC(=O)[C@H](Cc2ccc(O)cc2)NC(=O)[C@@H](NC(=O)[C@H](C)N)CSCCC(=O)N2CN3CN(C2)C(=O)CCSC[C@@H](C(=O)N[C@@H](C)C(N)=O)NC(=O)[C@H](Cc2ccc(O)cc2)NC(=O)[C@H](CCC(=O)O)NC(=O)[C@H](CC(=O)O)NC(=O)CNC(=O)[C@H](CSCCC3=O)NC1=O [BCY15639, A-(SEQ ID NO: 16)-A] (H-ACY[Cba]PDYLCGDEYCA-NH2; linker 2-9-14 via TATA)",–
0.01 µM,–,–,"CC(=O)N[C@H]1CSCCC(=O)N2CN3CN(C2)C(=O)CCSC[C@H](NC(=O)[C@H](CC(C)C)NC(=O)[C@H](Cc2ccc(O)cc2)NC(=O)[C@H](CC(=O)O)NC(=O)[C@@H]2CCCN2C(=O)[C@H](CC2CCC2)NC(=O)[C@H](Cc2ccc(O)cc2)NC1=O)C(=O)N[C@H](C)C(=O)N[C@@H](CC(=O)O)C(=O)N[C@@H](CCC(=O)O)C(=O)N[C@@H](Cc1ccc(O)cc1)C(=O)N[C@H](C(N)=O)CSCCC3=O [BCY16133, Ac-(SEQ ID NO: 40)] (Ac-CY[Cba]PDYLC[dA]DEYC-NH2; linker 1-8-13 via TATA; C-terminus assumed)",–
–,4000 nM,1000 nM,"CC(C)C[C@@H]1NC(=O)[C@@H]2CCCN2C(=O)[C@H](Cc2c[nH]cn2)NC(=O)[C@@H]2CSCCC(=O)N3CN(CN(C3)C(=O)CCSC[C@H](NC(=O)[C@H](C)N)C(=O)N3CCC[C@H]3C(=O)N3CCC[C@H]3C(=O)N[C@@H](CCC(=O)O)C(=O)N[C@@H](C(C)C)C(=O)N[C@@H](Cc3c[nH]c4ccccc34)C(=O)N2)C(=O)CCSC[C@@H](C(=O)N[C@@H](C)C(=O)N(C)CC(=O)N(C)CC(=O)N(C)CC(=O)N(C)CC(=O)N(C)CC(=O)N(C)CC(=O)N[C@@H](CCCCNC(=O)CCCC[C@@H]2SC[C@@H]3NC(=O)N[C@@H]32)C(N)=O)NC(=O)[C@H](CC(=O)O)NC1=O [BCY12622, A-(SEQ ID NO: 174)-A-[Sar6]-[KBiot]] (H-ACPPEVWCHPLDCA[Sar][Sar][Sar][Sar][Sar][Sar]K(Biotin)-NH2; linker 2-8-13 via TATA; N-terminus assumed)",–
–,3310 nM,17100 nM,"CC(C)C[C@@H]1NC(=O)[C@@H]2CCCN2C(=O)[C@H](Cc2c[nH]cn2)NC(=O)[C@@H]2CSCCC(=O)N3CN(CN(C3)C(=O)CCSC[C@H](NC(=O)[C@H](C)N)C(=O)N3CCC[C@H]3C(=O)N3CCC[C@H]3C(=O)N[C@@H](C)C(=O)N[C@@H](C(C)C)C(=O)N[C@@H](Cc3ccc(O)cc3)C(=O)N2)C(=O)CCSC[C@@H](C(=O)N[C@@H](C)C(N)=O)NC(=O)[C@H](CC(=O)O)NC1=O [BCY11673, A-(SEQ ID NO: 169)-A] (H-ACPPAVYCHPLDCA-NH2; linker 2-8-13 via TATA; C-terminus assumed)",–
